Measurements published in paper PMC9022229, “Induction of Paraptosis by Cyclometalated Iridium Complex-Peptide Hybrids and CGP37157 via a Mitochondrial Ca^2+ Overload Triggered by Membrane Fusion between Mitochondria and the Endoplasmic Reticulum” (Biochemistry, 2022).
Residues, ends and D or L forms follow the SMILES beside them. *: point of attachment. X1 = O=C(COc1ccc(-c2ccccn2)cc1)NCCCCCCCCN*

Assays:
HeLa S3 cells = experiment: MTT assay of HeLa S3 cells; type: cell-based, human; conditions: 24 h, 10% FBS/MEM, 37 °C, 5% CO2
Procedure: HeLa S3 and A549 cells (2.0 × 10^4 cells/well) were seeded on a 96-well plate (BD Falcon) in cell culture medium and incubated overnight at 37 °C under 5% CO2. Jurkat (2.0 × 10^4 cells/well), HeLa S3, and A549 cells were treated with 4 (0–25 μM) and CGP37157 (0–100 μM) for 1, 3, 6, 12, and 24 h at 37 °C under 5% CO2, after which a MTT solution in PBS (0.5%, 10 μL) was added to each well.
Figure S3. MTT assay of HeLa S3 cells (plain curves with filled circles) and A549 cells (dashed curves with filled squares) treated with CGP37157 (0–100 µM) in 10% FBS/MEM (HeLa S3 cells) and 10% FBS/DMEM (A549 cells) for 24 h at 37 °C under 5% CO 2.
Figure S4. MTT assay of Jurkat cells treated with inhibitors of programmed cell death; Z-VAD-fmk (an apoptosis inhibitor), necrostatin-1 (Nec-1: a necroptosis inhibitor), and 3-methyl adenine (3-MA, an autophagy inhibitor) in the presence of CGP37157 (100 µM, 12 h). Values are shown as the mean ± SD for three independent experiments. ** P < 0.01.
(also on this page, place not known: Cell viability (% control) CO2. 50 Cell viability (% control) 0300 00030 of)

IMR90 cells = system: IMR90 cells; parameters: method as in PMID 25875312, PMID 28032992, doi:10.1002/ejic.201700846, PMID 30154833, PMID 30177492; conditions: Chart 1, normal cell line, previously reported; read-out: EC50 against IMR90 cells; cited from earlier work

Row | Compound | EC50 (HeLa S3 cells) | EC50 (IMR90 cells)
1 | O=C1CSC(c2ccccc2Cl)c2cc(Cl)ccc2N1 (centres unmarked) [CGP37157] | 45 µM | –
2 | NCCCC[C@H](NC(=O)[C@H](CCCCN)NC(=O)[C@@H](N)CCCCN)C(=O)NCC(=O)NCC(=O)NCCCCCCCCNC(=O)COc1ccc(-c2ccccn2)cc1 [compound 4] (H-KKKGG-X1) | – | > 25 µM
